Test results: patent US20240025862A1, “SUBSTITUTED N-PHENYLURACILS AND SALTS THEREOF, AND USE THEREOF AS HERBICIDAL ACTIVE SUBSTANCES” (Bayer Aktiengesellschaft, priority 2020, published 2024)

Key:
Format in all cases: in vivo
Oryza sativa (ORYSA) = experiment: Post-emergence crop plant compatibility, greenhouse pot test (also comparative test C); conditions: vs untreated controls
Procedure, shortened: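 Visual damage versus untreated plants (0% = like control, 100% = plants died) was scored about 3 weeks after a post-emergence spray in greenhouse pots. Treatment: one-leaf stage, WP or EC in water at 600 l/ha with 0.5% additive; a/b/c mark different dosages on the same crop.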

[1] = test system: Amaranthus retroflexus (AMARE); experiment: Post-emergence herbicidal action, greenhouse pot test; conditions: rated visually after about 3 weeks vs untreated controls, 100% = plants have died
Procedure, shortened: (§1)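 Activity was scored by eye about 3 weeks after treatment against untreated plants, where 100% means dead plants and 0% means no difference. Plants at the one-leaf stage received a foliar spray of WP or EC formulations in water plus 0.5% additive (600 l/ha, up to 20 g/ha). Plants were grown in sandy loam pots in a greenhouse for 2–3 weeks before spraying.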

[2] = test system: Abutilon theophrasti (ABUTH); experiment: as above; conditions: rated visually after about 3 weeks vs untreated controls, 100% = plants have died
Procedure, shortened: as §1

Avena fatua (AVEFA) = experiment: as above; conditions: rated visually after about 3 weeks vs untreated controls, 100% = plants have died
Procedure, shortened: as §1

[3] = test system: Pharbitis purpurea (PHBPU); experiment: as above
Procedure, shortened: as §1

Veronica persica (VERPE) = experiment: as above
Procedure, shortened: as §1

Viola tricolor (VIOTR) = experiment: as above
Procedure, shortened: as §1

[4] = test system: Polygonum convolvulus (POLCO); experiment: as above
Procedure, shortened: as §1

Zea mays (ZEAMX) = experiment: Post-emergence crop plant compatibility, greenhouse pot test; conditions: 1.25 g/ha, vs untreated controls
Procedure, shortened: (§2)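 Compatibility was scored as visual % effect against untreated controls about 3 weeks after spraying green plant parts at the one-leaf stage. Formulations (WP/EC) were applied in aqueous form with 0.5% additive, 600 l/ha, to greenhouse-grown pot plants.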

[5] = test system: Triticum aestivum (TRZAS); experiment: as above; conditions: vs untreated controls
Procedure, shortened: as §2

[6] = test system: Matricaria inodora (MATIN); experiment: Post-emergence herbicidal action, greenhouse pot test (also comparative test C)
Procedure, shortened: (§3)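 Visual rating against untreated controls, about 3 weeks after spraying, from 0% (like control) to 100% (plants dead). Weeds were treated at the one-leaf stage, 2–3 weeks after sowing in sandy loam, with aqueous WP/EC spray containing 0.5% additive at 600 l/ha. Doses were ≤20 g/ha, or ≤5 g/ha for comparative test C.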

[7] = test system: Echinochloa crus-galli (ECHCG); experiment: as above
Procedure, shortened: as §3

[8] = test system: Alopecurus myosuroides (ALOMY); experiment: as above; conditions: rated visually after about 3 weeks vs untreated controls, 100% = plants have died
Procedure, shortened: as §3

Setaria viridis (SETVI) = experiment: as above
Procedure, shortened: as §3

Cn1c(C(F)(F)F)cc(=O)n(-c2cc(Oc3ccccc3OCC(=O)OCCOC(F)(F)F)c(Br)cc2F)c1=O [I.8-41]
20%: Post-emergence action against ORYSA (crop plant compatibility) (Oryza sativa (ORYSA); 5 g/ha) | Post-emergence action against ZEAMX (crop plant compatibility) (Zea mays (ZEAMX)) | Post-emergence action against TRZAS (crop plant compatibility) ([5]; 5 g/ha)
90%: Post-emergence action against POLCO in % ([4]; dosage 5 g/ha) | Post-emergence action against MATIN in % ([6]; dosage 1.25 g/ha) | Post-emergence action against MATIN in % ([6]; dosage 5 g/ha) | Post-emergence action against ECHCG in % ([7]; dosage 5 g/ha)
80%: Post-emergence action at 1.25 g/ha against ABUTH in % ([2]; 1.25 g/ha) | Post-emergence action at 20 g/ha against AVEFA in % (Avena fatua (AVEFA); 20 g/ha) | Post-emergence action against POLCO in % ([4]; dosage 1.25 g/ha) | Post-emergence action at 5 g/ha against ALOMY in % ([8]; 5 g/ha)
0%: Post-emergence action against ORYSA (crop plant compatibility) (Oryza sativa (ORYSA); 1.25 g/ha) | Post-emergence action against TRZAS (crop plant compatibility) ([5]; 1.25 g/ha)
100%: Post-emergence action at 1.25 g/ha against AMARE in % ([1]; 1.25 g/ha) | Post-emergence action at 5 g/ha against AMARE in % ([1]; 5 g/ha) | Post-emergence action at 20 g/ha against AMARE in % ([1]; 20 g/ha) | Post-emergence action at 5 g/ha against ABUTH in % ([2]; 5 g/ha) | Post-emergence action at 20 g/ha against ABUTH in % ([2]; 20 g/ha) | Post-emergence action against PHBPU in % ([3]; dosage 1.25 g/ha) | Post-emergence action against PHBPU in % ([3]; dosage 5 g/ha) | Post-emergence action against PHBPU in % ([3]; dosage 20 g/ha) | Post-emergence action against VERPE (Veronica persica (VERPE); 5 g/ha) | Post-emergence action against VERPE (Veronica persica (VERPE); 20 g/ha) | Post-emergence action against VIOTR (Viola tricolor (VIOTR); 1.25 g/ha) | Post-emergence action against VIOTR (Viola tricolor (VIOTR); 5 g/ha) | Post-emergence action against VIOTR (Viola tricolor (VIOTR); 20 g/ha) | Post-emergence action against POLCO in % ([4]; dosage 20 g/ha) | Post-emergence action against MATIN in % ([6]; dosage 20 g/ha) | Post-emergence action against ECHCG in % ([7]; dosage 20 g/ha) | Post-emergence action at 20 g/ha against ALOMY in % ([8]; 20 g/ha) | Post-emergence action against SETVI (Setaria viridis (SETVI); 20 g/ha) | Post-emergence action against SETVI in % (Setaria viridis (SETVI); dosage 1.25 g/ha) | Post-emergence action against SETVI in % (Setaria viridis (SETVI); dosage 5 g/ha)

Cn1c(C(F)(F)F)cc(=O)n(-c2cc(Oc3ccccc3OCC(=O)OCCOC(F)(F)F)c(C#N)cc2F)c1=O [I.9-41]
10%: Post-emergence action against ZEAMX (crop plant compatibility) (Zea mays (ZEAMX)) | Post-emergence action against TRZAS (crop plant compatibility) ([5]; 5 g/ha)
0%: Post-emergence action against ORYSA (crop plant compatibility) (Oryza sativa (ORYSA); 1.25 g/ha) | Post-emergence action against ORYSA (crop plant compatibility) (Oryza sativa (ORYSA); 5 g/ha) | Post-emergence action against TRZAS (crop plant compatibility) ([5]; 1.25 g/ha)
80%: Post-emergence action at 20 g/ha against AVEFA in % (Avena fatua (AVEFA); 20 g/ha) | Post-emergence action against ECHCG in % ([7]; dosage 5 g/ha) | Post-emergence action at 20 g/ha against ALOMY in % ([8]; 20 g/ha)
20%: Post-emergence action against TRZAS (crop plant compatibility) ([5]; 20 g/ha)
100%: Post-emergence action at 1.25 g/ha against AMARE in % ([1]; 1.25 g/ha) | Post-emergence action at 5 g/ha against AMARE in % ([1]; 5 g/ha) | Post-emergence action at 20 g/ha against AMARE in % ([1]; 20 g/ha) | Post-emergence action at 1.25 g/ha against ABUTH in % ([2]; 1.25 g/ha) | Post-emergence action at 5 g/ha against ABUTH in % ([2]; 5 g/ha) | Post-emergence action at 20 g/ha against ABUTH in % ([2]; 20 g/ha) | Post-emergence action against PHBPU in % ([3]; dosage 1.25 g/ha) | Post-emergence action against PHBPU in % ([3]; dosage 5 g/ha) | Post-emergence action against PHBPU in % ([3]; dosage 20 g/ha) | Post-emergence action against VERPE (Veronica persica (VERPE); 5 g/ha) | Post-emergence action against VERPE (Veronica persica (VERPE); 20 g/ha) | Post-emergence action against VIOTR (Viola tricolor (VIOTR); 5 g/ha) | Post-emergence action against VIOTR (Viola tricolor (VIOTR); 20 g/ha) | Post-emergence action against POLCO in % ([4]; dosage 20 g/ha) | Post-emergence action against MATIN in % ([6]; dosage 1.25 g/ha) | Post-emergence action against MATIN in % ([6]; dosage 5 g/ha) | Post-emergence action against MATIN in % ([6]; dosage 20 g/ha) | Post-emergence action against ECHCG in % ([7]; dosage 20 g/ha) | Post-emergence action against SETVI (Setaria viridis (SETVI); 20 g/ha) | Post-emergence action against SETVI in % (Setaria viridis (SETVI); dosage 1.25 g/ha) | Post-emergence action against SETVI in % (Setaria viridis (SETVI); dosage 5 g/ha)
90%: Post-emergence action against VIOTR (Viola tricolor (VIOTR); 1.25 g/ha) | Post-emergence action against POLCO in % ([4]; dosage 5 g/ha)

Cn1c(C(F)(F)F)cc(=O)n(-c2cc(Oc3ccccc3OCC(=O)OCC#N)c(C#N)cc2F)c1=O [I.9-176, Cyanomethyl (2-{2-cyano-4-fluoro-5-[3-methyl-2,6-dioxo-4-(trifluoromethyl)-3,6-dihydropyrimidin-1(2H)-yl]phenoxy}phenoxy)acetate]
100%: pest or weed control at 1.25 g/ha ([1]; Amaranthus retroflexus, 504 h, 1.25 g/ha, read-out: Post-emergence action at 1.25 g/ha against AMARE in %) | pest or weed control at 5 g/ha ([1]; Amaranthus retroflexus, 504 h, 5 g/ha, read-out: Post-emergence action at 5 g/ha against AMARE in %) | pest or weed control at 20 g/ha ([1]; Amaranthus retroflexus, 504 h, 20 g/ha, read-out: Post-emergence action at 20 g/ha against AMARE in %) | pest or weed control at 1.25 g/ha ([2]; Abutilon theophrasti, 504 h, 1.25 g/ha, read-out: Post-emergence action at 1.25 g/ha against ABUTH in %) | pest or weed control at 5 g/ha ([2]; Abutilon theophrasti, 504 h, 5 g/ha, read-out: Post-emergence action at 5 g/ha against ABUTH in %) | pest or weed control at 20 g/ha ([2]; Abutilon theophrasti, 504 h, 20 g/ha, read-out: Post-emergence action at 20 g/ha against ABUTH in %) | pest or weed control at 5 g/ha ([3]; Ipomoea purpurea, 504 h, dosage 5 g/ha, read-out: Post-emergence action against PHBPU in %) | pest or weed control at 20 g/ha ([3]; Ipomoea purpurea, 504 h, dosage 20 g/ha, read-out: Post-emergence action against PHBPU in %) | pest or weed control at 1.25 g/ha (Veronica persica (VERPE); Veronica persica, 504 h, 1.25 g/ha, read-out: Post-emergence action against VERPE) | pest or weed control at 5 g/ha (Veronica persica (VERPE); Veronica persica, 504 h, 5 g/ha, read-out: Post-emergence action against VERPE) | pest or weed control at 20 g/ha (Veronica persica (VERPE); Veronica persica, 504 h, 20 g/ha, read-out: Post-emergence action against VERPE) | pest or weed control at 1.25 g/ha (Viola tricolor (VIOTR); Viola tricolor, 504 h, 1.25 g/ha, read-out: Post-emergence action against VIOTR) | pest or weed control at 5 g/ha (Viola tricolor (VIOTR); Viola tricolor, 504 h, 5 g/ha, read-out: Post-emergence action against VIOTR) | pest or weed control at 20 g/ha (Viola tricolor (VIOTR); Viola tricolor, 504 h, 20 g/ha, read-out: Post-emergence action against VIOTR) | pest or weed control at 20 g/ha ([4]; Fallopia convolvulus, 504 h, dosage 20 g/ha, read-out: Post-emergence action against POLCO in %) | pest or weed control at 5 g/ha ([6]; Tripleurospermum inodorum, 504 h, dosage 5 g/ha, read-out: Post-emergence action against MATIN in %) | pest or weed control at 20 g/ha ([6]; Tripleurospermum inodorum, 504 h, dosage 20 g/ha, read-out: Post-emergence action against MATIN in %) | Post-emergence action at 1.25 g/ha against ECHCG in % ([7]; 1.25 g/ha, rated visually after about 3 weeks vs untreated controls, 100% = plants have died) | pest or weed control at 5 g/ha ([7]; Echinochloa crus-galli, 504 h, dosage 5 g/ha, read-out: Post-emergence action against ECHCG in %) | pest or weed control at 20 g/ha ([7]; Echinochloa crus-galli, 504 h, dosage 20 g/ha, read-out: Post-emergence action against ECHCG in %) | pest or weed control at 5 g/ha ([8]; Alopecurus myosuroides, 504 h, 5 g/ha, read-out: Post-emergence action at 5 g/ha against ALOMY in %) | pest or weed control at 20 g/ha ([8]; Alopecurus myosuroides, 504 h, 20 g/ha, read-out: Post-emergence action at 20 g/ha against ALOMY in %) | pest or weed control at 20 g/ha (Setaria viridis (SETVI); Setaria viridis, 504 h, 20 g/ha, read-out: Post-emergence action against SETVI) | pest or weed control at 1.25 g/ha (Setaria viridis (SETVI); Setaria viridis, 504 h, dosage 1.25 g/ha, read-out: Post-emergence action against SETVI in %) | pest or weed control at 5 g/ha (Setaria viridis (SETVI); Setaria viridis, 504 h, dosage 5 g/ha, read-out: Post-emergence action against SETVI in %)
20%: Post-emergence action against ORYSA (crop plant compatibility) (Oryza sativa (ORYSA); 5 g/ha) | Post-emergence action against TRZAS (crop plant compatibility) ([5]; 5 g/ha)
0%: Post-emergence action against ORYSA (crop plant compatibility) (Oryza sativa (ORYSA); 1.25 g/ha) | Post-emergence action against ZEAMX (crop plant compatibility) (Zea mays (ZEAMX)) | Post-emergence action against TRZAS (crop plant compatibility) ([5]; 1.25 g/ha)
80%: Post-emergence action at 5 g/ha against AVEFA in % (Avena fatua (AVEFA); 5 g/ha) | pest or weed control at 20 g/ha (Avena fatua (AVEFA); Avena fatua, 504 h, 20 g/ha, read-out: Post-emergence action at 20 g/ha against AVEFA in %)
